Reference: ChEMBL document CHEMBL1201862, “PubChem BioAssay data set” (2004)
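Cells were grown in 96-well plates and exposed to each compound for 48 hours at five concentrations; endpoints were interpolated linearly between bracketing concentrations, or set to the highest concentration if not reached. GI50: concentration for 50% inhibition of growth.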 Calls of active or inactive are those of the source. Cut-off read from the data, not from the text of the source: active = GI50 up to about 1.1 µM and inactive = higher.

Columns and labels:
Experiment in all cases: NCI-60 cell line screen, 48 h
COLO 205 = system: COLO 205
UO-31 = system: UO-31
CCRF-CEM = system: CCRF-CEM
KM12 = system: KM12
K562 = system: K562
A498 = system: A498
UACC-62 = system: UACC-62
T47D = system: T47D
SR = system: SR
SF-539 = system: SF-539
EKVX = system: EKVX
CAKI-1 = system: CAKI-1
A549 = system: A549
Hs-578T = system: Hs-578T
SW-620 = system: SW-620
SN12C = system: SN12C
Malme-3M = system: Malme-3M
MOLT-4 = system: MOLT-4
SK-OV-3 = system: SK-OV-3
SF-295 = system: SF-295
HOP-62 = system: HOP-62
NCI-H460 = system: NCI-H460
SK-MEL-2 = system: SK-MEL-2
M14 = system: M14
HOP-92 = system: HOP-92
HT-29 = system: HT-29
TK-10 = system: TK-10
IGROV-1 = system: IGROV-1
NCI/ADR-RES = system: NCI/ADR-RES
BT-549 = system: BT-549
NCI-H522 = system: NCI-H522
SK-MEL-28 = system: SK-MEL-28
OVCAR-5 = system: OVCAR-5
UACC-257 = system: UACC-257
786-0 = system: 786-0
U-251 = system: U-251
HL-60 = system: HL-60
LOX IMVI = system: LOX IMVI
SF-268 = system: SF-268
HCT-116 = system: HCT-116
RXF 393 = system: RXF 393
DU-145 = system: DU-145
OVCAR-4 = system: OVCAR-4
ACHN = system: ACHN
MDA-N = system: MDA-N
SK-MEL-5 = system: SK-MEL-5
MDA-MB-435 = system: MDA-MB-435
NCI-H226 = system: NCI-H226
HCT-15 = system: HCT-15
MDA-MB-231 = system: MDA-MB-231
SNB-75 = system: SNB-75
SNB-19 = system: SNB-19
NCI-H23 = system: NCI-H23
PC-3 = system: PC-3
OVCAR-8 = system: OVCAR-8
RPMI-8226 = system: RPMI-8226
OVCAR-3 = system: OVCAR-3
HCC 2998 = system: HCC 2998
MCF7 = system: MCF7

With `CSc1ccc(NC(=O)Nc2cc(C)ccn2)cc1` the GI50 (COLO 205) was > 100 µM (inactive), the GI50 (UO-31) was > 100 µM (inactive) and the GI50 (CCRF-CEM) was > 100 µM (inactive). For the same compound, the GI50 (KM12) was > 100 µM (inactive), the GI50 (K562) was > 100 µM (inactive) and the GI50 (A498) was > 100 µM (inactive). For the same compound, the GI50 (UACC-62) was > 100 µM (inactive), the GI50 (T47D) was > 100 µM (inactive) and the GI50 (SR) was > 100 µM (inactive). For the same compound, the GI50 (SF-539) was 2.36 µM (inactive), the GI50 (EKVX) was > 100 µM (inactive) and the GI50 (CAKI-1) was > 100 µM (inactive). The GI50 (A549) was > 100 µM (inactive), the GI50 (Hs-578T) was > 100 µM (inactive) and the GI50 (SW-620) was > 100 µM (inactive). The GI50 (SN12C) was > 100 µM (inactive), the GI50 (Malme-3M) was > 100 µM (inactive) and the GI50 (MOLT-4) was > 100 µM (inactive). The GI50 (SK-OV-3) was > 100 µM (inactive), the GI50 (SF-295) was > 100 µM (inactive) and the GI50 (HOP-62) was > 100 µM (inactive). For the same compound, the GI50 (NCI-H460) was > 100 µM (inactive), the GI50 (SK-MEL-2) was > 100 µM (inactive) and the GI50 (M14) was > 100 µM (inactive). For the same compound, the GI50 (HOP-92) was > 100 µM (inactive), the GI50 (HT-29) was > 100 µM (inactive) and the GI50 (TK-10) was > 100 µM (inactive). For the same compound, the GI50 (IGROV-1) was > 100 µM (inactive), the GI50 (NCI/ADR-RES) was > 100 µM (inactive) and the GI50 (BT-549) was > 100 µM (inactive). For the same compound, the GI50 (NCI-H522) was > 100 µM (inactive), the GI50 (SK-MEL-28) was > 100 µM (inactive) and the GI50 (OVCAR-5) was > 100 µM (inactive). For the same compound, the GI50 (UACC-257) was > 100 µM (inactive), the GI50 (786-0) was > 100 µM (inactive) and the GI50 (U-251) was > 100 µM (inactive). For the same compound, the GI50 (HL-60) was > 100 µM (inactive), the GI50 (LOX IMVI) was > 100 µM (inactive) and the GI50 (SF-268) was > 100 µM (inactive). For the same compound, the GI50 (HCT-116) was > 100 µM (inactive), the GI50 (RXF 393) was > 100 µM (inactive) and the GI50 (DU-145) was > 100 µM (inactive). For the same compound, the GI50 (OVCAR-4) was > 100 µM (inactive), the GI50 (ACHN) was > 100 µM (inactive) and the GI50 (MDA-N) was > 100 µM (inactive). For the same compound, the GI50 (SK-MEL-5) was > 100 µM (inactive), the GI50 (MDA-MB-435) was > 100 µM (inactive) and the GI50 (NCI-H226) was > 100 µM (inactive). For the same compound, the GI50 (HCT-15) was over 100 µM, the GI50 (MDA-MB-231) was > 100 µM (inactive) and the GI50 (SNB-75) was > 100 µM (inactive). For the same compound, the GI50 (SNB-19) was > 100 µM (inactive), the GI50 (NCI-H23) was > 100 µM (inactive) and the GI50 (PC-3) was > 100 µM (inactive). The GI50 (OVCAR-8) was > 100 µM (inactive), the GI50 (RPMI-8226) was > 100 µM (inactive) and the GI50 (OVCAR-3) was > 100 µM (inactive). For the same compound, the GI50 (HCC 2998) was 91.4 µM (inactive) and the GI50 (MCF7) was > 100 µM (inactive).
`CN(C)CCNC(=O)c1c(O)ccc2c1c1c(n2CCc2ccccc2)C(=O)c2ccccc2C1=O` was tested, and the GI50 (COLO 205) was 15.8 µM (inactive), the GI50 (UO-31) was 5.26 µM (inactive) and the GI50 (CCRF-CEM) was 0.826 µM (active). For the same compound, the GI50 (KM12) was 4.15 µM (inactive), the GI50 (K562) was 2.39 µM (inactive) and the GI50 (A498) was 14.8 µM (inactive). For the same compound, the GI50 (UACC-62) was 2.76 µM (inactive), the GI50 (T47D) was 3.66 µM (inactive) and the GI50 (SR) was 2.58 µM (inactive). For the same compound, the GI50 (SF-539) was 5.37 µM (inactive), the GI50 (EKVX) was 14.6 µM (inactive) and the GI50 (CAKI-1) was 7.08 µM (inactive). For the same compound, the GI50 (A549) was 8.53 µM (inactive), the GI50 (Hs-578T) was 9.73 µM (inactive) and the GI50 (SW-620) was 6.93 µM (inactive). For the same compound, the GI50 (SN12C) was 6.56 µM (inactive), the GI50 (Malme-3M) was 3.63 µM (inactive) and the GI50 (MOLT-4) was 4.42 µM (inactive). For the same compound, the GI50 (SK-OV-3) was 16.4 µM (inactive), the GI50 (SF-295) was 4.06 µM (inactive) and the GI50 (HOP-62) was 10.6 µM (inactive). For the same compound, the GI50 (NCI-H460) was 3.58 µM (inactive), the GI50 (SK-MEL-2) was 5.87 µM (inactive) and the GI50 (M14) was 1.93 µM (inactive). For the same compound, the GI50 (HOP-92) was 8.97 µM (inactive), the GI50 (HT-29) was 6.82 µM (inactive) and the GI50 (TK-10) was 7.93 µM (inactive). For the same compound, the GI50 (IGROV-1) was 8.47 µM (inactive), the GI50 (NCI/ADR-RES) was 13.5 µM (inactive) and the GI50 (BT-549) was 16.1 µM (inactive). For the same compound, the GI50 (NCI-H522) was 8.67 µM (inactive), the GI50 (SK-MEL-28) was 1.98 µM (inactive) and the GI50 (OVCAR-5) was 15.5 µM (inactive). For the same compound, the GI50 (UACC-257) was 5.37 µM (inactive), the GI50 (786-0) was 4.36 µM (inactive) and the GI50 (U-251) was 4.4 µM (inactive). For the same compound, the GI50 (HL-60) was 9.18 µM (inactive), the GI50 (LOX IMVI) was 2.43 µM (inactive) and the GI50 (SF-268) was 4.15 µM (inactive). The GI50 (HCT-116) was 3.6 µM (inactive), the GI50 (RXF 393) was 0.302 µM (active) and the GI50 (DU-145) was 4.57 µM (inactive). For the same compound, the GI50 (OVCAR-4) was 11.6 µM (inactive), the GI50 (ACHN) was 9.18 µM (inactive) and the GI50 (MDA-N) was 2.25 µM (inactive). The GI50 (SK-MEL-5) was 2.96 µM (inactive), the GI50 (MDA-MB-435) was 2.17 µM (inactive) and the GI50 (NCI-H226) was 16.8 µM (inactive). The GI50 (HCT-15) was 4.47 µM, the GI50 (MDA-MB-231) was 5.27 µM (inactive) and the GI50 (SNB-75) was 14.4 µM (inactive). For the same compound, the GI50 (SNB-19) was 9.68 µM (inactive), the GI50 (NCI-H23) was 14.4 µM (inactive) and the GI50 (PC-3) was 12 µM (inactive). For the same compound, the GI50 (OVCAR-8) was 8.36 µM (inactive), the GI50 (RPMI-8226) was 2.75 µM (inactive) and the GI50 (OVCAR-3) was 12.9 µM (inactive). For the same compound, the GI50 (HCC 2998) was 1.22 µM (inactive) and the GI50 (MCF7) was 3.37 µM (inactive).
